In ChEMBL document CHEMBL5050855, “Mettl16 inhibitors and uses thereof” (2021):
Calls of active or inactive are those of the source. The rule behind the calls is not given here.

What was measured:
[1] = Antiproliferative activity against human MA9.3ITD cells after 72 hrs by MTT assay; assay type: functional, cell-based
U-937 [2] = test: Antiproliferative activity against human U-937 cells after 72 hrs by MTT assay; assay type: functional, cell-based; conditions: U-937, 72 h
[3] = Antiproliferative activity against human MA9.3RAS cells after 72 hrs by MTT assay; assay type: functional, cell-based
NOMO-1 = test: Antiproliferative activity against human NOMO-1 cells after 72 hrs by MTT assay; assay type: functional, cell-based; conditions: NOMO-1, 72 h
HEL = test: Antiproliferative activity against human HEL cells after 72 hrs by MTT assay; assay type: functional, cell-based
Kasumi 1 [4] = test: Antiproliferative activity against human Kasumi 1 cells after 72 hrs by MTT assay; assay type: functional, cell-based; conditions: Kasumi 1, 72 h
HL-60 = test: Antiproliferative activity against human HL-60 cells after 72 hrs by MTT assay; assay type: functional, cell-based; conditions: HL-60, 72 h
MONO-MAC-6 = test: Antiproliferative activity against human MONO-MAC-6 cells after 72 hrs by MTT assay; assay type: functional, cell-based; conditions: MONO-MAC-6, 72 h
RS4-11 = test: Antiproliferative activity against human RS4-11 cells after 72 hrs by MTT assay; assay type: functional, cell-based; conditions: RS4-11, 72 h
SUP-B15 = test: Antiproliferative activity against human SUP-B15 cells after 72 hrs by MTT assay; assay type: functional, cell-based; conditions: SUP-B15, 72 h
DG-75 = test: Antiproliferative activity against human DG-75 cells after 72 hrs by MTT assay; assay type: functional, cell-based; conditions: DG-75, 72 h
CA46 = test: Antiproliferative activity against human CA46 cells after 72 hrs by MTT assay; assay type: functional, cell-based; conditions: CA46, 72 h
HeLa = test: Antiproliferative activity against human HeLa cells after 72 hrs by MTT assay; assay type: functional, cell-based
COLO357 = test: Antiproliferative activity against human COLO357 cells after 72 hrs by MTT assay; assay type: functional, cell-based; conditions: COLO357, 72 h
U-87 MG = test: Antiproliferative activity against human U-87 MG cells after 72 hrs by MTT assay; assay type: functional, cell-based, U-87MG ATCC
LN-229 = test: Antiproliferative activity against human LN-229 cells after 72 hrs by MTT assay; assay type: functional, cell-based; conditions: LN-229, 72 h
A 172 = test: Antiproliferative activity against human A-172 cells after 72 hrs by MTT assay; assay type: functional, cell-based; conditions: A 172, 72 h
T98G = test: Antiproliferative activity against human T98G cells after 72 hrs by MTT assay; assay type: functional, cell-based
U-937 [5] = test: Binding affinity towards METTL16 in human U-937 cells at 0.1 to 500 uM and measured by drug affinity responsive target stability (DARTS) assay; assay type: cell-based; conditions: dose 0.1-500 µM
U-937 [6] = test: Binding affinity towards METTL16 in human U-937 cells at 0.1 to 500 uM and measured by cellular thermal shift assay (CETSA); assay type: cell-based; conditions: dose 0.1-500 µM
U-937 [7] = test: Inhibition of METTL16 in human U-937 cells at 10 to 20 nM assessed as increase in global m6A levels measured after 48 hrs; assay type: cell-based; conditions: dose 10-20 nM
Kasumi 1 [8] = test: Inhibition of METTL16 in human Kasumi 1 cells at 10 to 20 nM assessed as increase in global m6A levels measured after 48 hrs; assay type: cell-based; conditions: dose 10-20 nM
MA9.3RAS = test: Inhibition of METTL16 in human MA9.3RAS cells at 10 to 20 nM assessed as increase in global m6A levels measured after 48 hrs; assay type: cell-based; conditions: dose 10-20 nM

With Nc1ccc(CO)c(Cn2ccc3c4c(N)nc(N)nc4ccc32)c1 the IC50 [1] was 54 nM, the IC50 (U-937 [2]) was 36 nM and the IC50 [3] was 70 nM. It also gave an IC50 (NOMO-1) of 55 nM.

In the case of Nc1ccc(Cn2ccc3c4c(N)nc(N)nc4ccc32)cc1, the IC50 (HEL) is reported as 15.4 nM, the IC50 (Kasumi 1 [4]) is reported as 13 nM and the IC50 [1] is reported as 15.7 nM. For the same compound, the IC50 (U-937 [2]) was 9.63 nM, the IC50 [3] was 16.1 nM and the IC50 (HL-60) was 32.6 nM. It also gave an IC50 (MONO-MAC-6) of 28 nM, an IC50 (RS4-11) of 37 nM and an IC50 (SUP-B15) of 13 nM. It also gave an IC50 (DG-75) of 44 nM, an IC50 (CA46) of 109 nM and an IC50 (HeLa) of 64 nM. The IC50 (COLO357) was 1030 nM, the IC50 (U-87 MG) was 20900 nM and the IC50 (LN-229) was 558 nM. The IC50 (A 172) was 682 nM, the IC50 (T98G) was 10800 nM and the Activity (U-937 [5]) was “Active”. For the same compound, the Activity (U-937 [6]) was “Active”, the inhibition (U-937 [7]) was “Active” and the inhibition (Kasumi 1 [8]) was “Active”. The inhibition (MA9.3RAS) was “Active”.

Nc1ccc(Cn2ccc3c4c(N)nc(N)nc4ccc32)c(CO)c1 gave an IC50 [1] of 47 nM, an IC50 (U-937 [2]) of 23 nM and an IC50 [3] of 45 nM.
